{"source": "ChEMBL document CHEMBL2321873", "about": "“1-(4-Phenylpiperazin-1-yl)-2-(1H-pyrazol-1-yl)ethanones as novel CCR1 antagonists” (Bioorg Med Chem Lett, 2013)", "key": {"[1]": {"target": "C-C chemokine receptor type 5 (Homo sapiens) (UniProt P51681)", "sequence (P51681 whole entry, looked up)": "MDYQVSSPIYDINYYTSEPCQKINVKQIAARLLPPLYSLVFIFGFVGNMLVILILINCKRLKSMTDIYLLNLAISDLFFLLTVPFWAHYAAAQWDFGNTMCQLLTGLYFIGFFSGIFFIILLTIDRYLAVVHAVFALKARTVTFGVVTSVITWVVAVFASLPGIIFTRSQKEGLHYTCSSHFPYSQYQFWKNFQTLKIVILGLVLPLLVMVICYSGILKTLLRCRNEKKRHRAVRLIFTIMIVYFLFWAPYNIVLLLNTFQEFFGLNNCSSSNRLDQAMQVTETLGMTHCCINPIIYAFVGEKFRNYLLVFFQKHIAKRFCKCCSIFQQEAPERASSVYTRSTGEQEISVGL", "experiment": "Antagonist activity at CCR5 (unknown origin) assessed as inhibition of calcium flux at 10 uM", "assay_type": "functional"}, "[2]": {"target": "T1, C-C chemokine receptor type 10 (Homo sapiens) (UniProt P46092)", "T1 sequence (whole entry)": "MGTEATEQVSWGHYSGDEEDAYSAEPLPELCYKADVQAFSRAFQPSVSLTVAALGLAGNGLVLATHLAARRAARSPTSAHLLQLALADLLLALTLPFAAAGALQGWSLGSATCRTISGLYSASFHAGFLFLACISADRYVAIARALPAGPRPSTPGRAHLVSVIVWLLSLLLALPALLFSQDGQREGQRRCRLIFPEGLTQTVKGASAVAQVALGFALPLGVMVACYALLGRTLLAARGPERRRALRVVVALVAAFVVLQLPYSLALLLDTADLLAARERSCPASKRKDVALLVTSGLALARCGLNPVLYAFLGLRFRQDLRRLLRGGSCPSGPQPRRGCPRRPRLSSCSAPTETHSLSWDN", "experiment": "Binding affinity to CCR10 (unknown origin) at 10 uM by radioligand displacement assay"}, "[3]": {"experiment": "Oral bioavailability in Beagle dog at 5 mg/kg", "assay_type": "ADME, organism-based, Canis lupus familiaris", "conditions": "in vivo"}, "[4]": {"target": "T2, CX3C chemokine receptor 1 (Homo sapiens) (UniProt P49238)", "T2 sequence (whole entry)": "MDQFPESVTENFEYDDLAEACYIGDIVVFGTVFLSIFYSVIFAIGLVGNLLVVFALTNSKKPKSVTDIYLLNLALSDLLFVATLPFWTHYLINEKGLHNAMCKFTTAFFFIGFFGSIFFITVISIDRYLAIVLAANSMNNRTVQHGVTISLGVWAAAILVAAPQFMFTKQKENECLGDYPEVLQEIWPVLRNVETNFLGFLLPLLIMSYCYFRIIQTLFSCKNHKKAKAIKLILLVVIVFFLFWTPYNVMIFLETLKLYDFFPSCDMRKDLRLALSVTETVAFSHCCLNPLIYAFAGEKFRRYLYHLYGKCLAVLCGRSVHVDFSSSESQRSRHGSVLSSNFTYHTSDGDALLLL", "experiment": "Antagonist activity at CX3CR1 (unknown origin) assessed as inhibition of calcium flux at 10 uM", "assay_type": "functional"}, "[5]": {"target": "T3, G protein-coupled receptor (Human herpesvirus 8) (UniProt Q76SF8)", "T3 sequence (whole entry)": "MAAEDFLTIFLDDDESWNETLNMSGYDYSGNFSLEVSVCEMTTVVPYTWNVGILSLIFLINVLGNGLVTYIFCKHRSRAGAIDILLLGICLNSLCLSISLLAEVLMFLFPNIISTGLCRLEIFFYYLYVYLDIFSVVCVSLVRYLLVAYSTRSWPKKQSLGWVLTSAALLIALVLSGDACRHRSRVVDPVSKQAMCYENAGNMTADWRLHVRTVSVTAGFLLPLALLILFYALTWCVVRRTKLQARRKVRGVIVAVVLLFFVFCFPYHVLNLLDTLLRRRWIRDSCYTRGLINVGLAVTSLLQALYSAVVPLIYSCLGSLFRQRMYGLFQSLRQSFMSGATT", "experiment": "Binding affinity to HHV8 ORF74 at 10 uM by radioligand displacement assay", "conditions": "Human gammaherpesvirus 8"}, "[6]": {"target": "T4, C-C chemokine receptor-like 2 (Homo sapiens) (UniProt O00421)", "T4 sequence (whole entry)": "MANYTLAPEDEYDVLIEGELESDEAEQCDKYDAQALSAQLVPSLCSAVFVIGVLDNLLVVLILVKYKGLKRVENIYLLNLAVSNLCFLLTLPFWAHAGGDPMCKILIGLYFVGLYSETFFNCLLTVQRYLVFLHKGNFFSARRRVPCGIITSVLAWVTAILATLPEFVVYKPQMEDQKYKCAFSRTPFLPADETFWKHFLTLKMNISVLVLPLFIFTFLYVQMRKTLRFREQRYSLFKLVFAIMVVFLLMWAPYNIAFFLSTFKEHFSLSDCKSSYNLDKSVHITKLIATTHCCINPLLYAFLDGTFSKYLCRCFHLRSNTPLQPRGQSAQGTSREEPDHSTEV", "experiment": "Antagonist activity at CCR11 (unknown origin) assessed as inhibition of chemotaxis at 10 uM"}, "[7]": {"target": "C-X-C chemokine receptor type 4 (Homo sapiens) (UniProt P61073)", "sequence (P61073 whole entry)": "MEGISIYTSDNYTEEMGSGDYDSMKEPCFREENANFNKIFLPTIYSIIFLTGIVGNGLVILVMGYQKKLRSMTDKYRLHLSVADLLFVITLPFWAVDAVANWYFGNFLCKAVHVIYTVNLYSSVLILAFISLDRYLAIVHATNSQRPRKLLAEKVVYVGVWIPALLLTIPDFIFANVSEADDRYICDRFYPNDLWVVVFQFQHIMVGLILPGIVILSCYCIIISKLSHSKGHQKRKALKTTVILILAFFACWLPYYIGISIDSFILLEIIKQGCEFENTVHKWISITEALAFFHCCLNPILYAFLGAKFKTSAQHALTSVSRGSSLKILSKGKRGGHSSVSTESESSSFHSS", "experiment": "Antagonist activity at CXCR4 (unknown origin) assessed as inhibition of chemotaxis at 10 uM"}, "[8]": {"target": "T2, CX3C chemokine receptor 1 (Homo sapiens)", "experiment": "Antagonist activity at CX3CR1 (unknown origin) assessed as inhibition of chemotaxis at 10 uM"}, "[9]": {"target": "C-C chemokine receptor type 8 (Homo sapiens) (UniProt P51685)", "sequence (P51685 whole entry)": "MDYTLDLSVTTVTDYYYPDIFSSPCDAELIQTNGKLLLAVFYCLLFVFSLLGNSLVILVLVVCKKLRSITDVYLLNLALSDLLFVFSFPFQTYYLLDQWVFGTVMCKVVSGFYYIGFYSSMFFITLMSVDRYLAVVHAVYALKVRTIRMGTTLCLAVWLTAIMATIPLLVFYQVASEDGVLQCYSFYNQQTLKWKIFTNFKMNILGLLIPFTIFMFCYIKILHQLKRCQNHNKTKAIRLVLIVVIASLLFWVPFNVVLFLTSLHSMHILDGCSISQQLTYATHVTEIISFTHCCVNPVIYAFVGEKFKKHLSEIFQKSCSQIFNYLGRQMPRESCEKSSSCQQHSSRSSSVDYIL", "experiment": "Antagonist activity at CCR8 (unknown origin) assessed as inhibition of chemotaxis at 10 uM"}, "[10]": {"target": "Atypical chemokine receptor 3 (Homo sapiens) (UniProt P25106)", "sequence (P25106 whole entry)": "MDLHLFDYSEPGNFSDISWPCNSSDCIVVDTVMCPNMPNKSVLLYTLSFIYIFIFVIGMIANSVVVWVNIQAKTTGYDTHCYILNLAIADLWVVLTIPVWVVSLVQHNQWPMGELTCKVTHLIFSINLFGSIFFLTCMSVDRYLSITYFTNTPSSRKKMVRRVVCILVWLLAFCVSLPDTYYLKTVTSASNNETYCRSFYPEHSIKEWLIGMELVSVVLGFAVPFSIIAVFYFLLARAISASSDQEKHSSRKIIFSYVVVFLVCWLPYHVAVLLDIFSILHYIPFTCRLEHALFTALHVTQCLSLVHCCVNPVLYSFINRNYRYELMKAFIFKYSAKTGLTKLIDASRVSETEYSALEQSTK", "experiment": "Binding affinity to CXCR7 (unknown origin) at 10 uM by radioligand displacement assay"}, "[11]": {"target": "Voltage-gated inwardly rectifying potassium channel KCNH2 (Homo sapiens, UniProt Q12809)", "sequence (Q12809 whole entry)": "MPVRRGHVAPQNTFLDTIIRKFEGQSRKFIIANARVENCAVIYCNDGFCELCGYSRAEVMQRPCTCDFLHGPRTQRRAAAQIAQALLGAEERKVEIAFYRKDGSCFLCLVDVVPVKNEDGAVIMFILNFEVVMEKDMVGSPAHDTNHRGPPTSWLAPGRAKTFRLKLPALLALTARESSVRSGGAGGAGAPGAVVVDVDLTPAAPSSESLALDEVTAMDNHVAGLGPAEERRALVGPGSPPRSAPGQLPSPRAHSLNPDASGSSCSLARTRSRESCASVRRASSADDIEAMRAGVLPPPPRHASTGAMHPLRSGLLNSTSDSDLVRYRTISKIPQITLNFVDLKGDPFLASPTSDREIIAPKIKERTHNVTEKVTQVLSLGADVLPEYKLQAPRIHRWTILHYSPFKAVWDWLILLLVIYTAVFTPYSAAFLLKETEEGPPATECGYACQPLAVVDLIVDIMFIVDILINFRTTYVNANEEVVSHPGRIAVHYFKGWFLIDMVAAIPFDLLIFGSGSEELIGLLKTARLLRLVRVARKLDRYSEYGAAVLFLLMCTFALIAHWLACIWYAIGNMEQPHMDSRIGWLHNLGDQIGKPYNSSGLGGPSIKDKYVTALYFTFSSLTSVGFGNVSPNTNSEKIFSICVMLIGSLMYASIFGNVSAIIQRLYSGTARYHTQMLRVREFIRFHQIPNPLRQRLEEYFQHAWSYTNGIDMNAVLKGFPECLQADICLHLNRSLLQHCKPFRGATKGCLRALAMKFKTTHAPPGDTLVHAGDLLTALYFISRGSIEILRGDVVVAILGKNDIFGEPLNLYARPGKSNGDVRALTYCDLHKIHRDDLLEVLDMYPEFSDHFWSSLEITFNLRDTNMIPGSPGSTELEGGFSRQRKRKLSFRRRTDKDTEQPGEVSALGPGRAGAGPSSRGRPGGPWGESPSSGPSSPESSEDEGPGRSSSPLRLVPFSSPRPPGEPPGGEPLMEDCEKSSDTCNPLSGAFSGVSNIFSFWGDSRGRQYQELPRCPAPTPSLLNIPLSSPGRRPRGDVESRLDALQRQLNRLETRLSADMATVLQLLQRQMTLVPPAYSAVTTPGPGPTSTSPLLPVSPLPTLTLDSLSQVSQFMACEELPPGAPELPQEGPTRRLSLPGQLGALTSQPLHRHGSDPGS", "experiment": "Binding affinity to human ERG by patch clamp assay"}, "[12]": {"target": "T5, C-X-C chemokine receptor type 1 (Homo sapiens) (UniProt P25024)", "T5 sequence (whole entry)": "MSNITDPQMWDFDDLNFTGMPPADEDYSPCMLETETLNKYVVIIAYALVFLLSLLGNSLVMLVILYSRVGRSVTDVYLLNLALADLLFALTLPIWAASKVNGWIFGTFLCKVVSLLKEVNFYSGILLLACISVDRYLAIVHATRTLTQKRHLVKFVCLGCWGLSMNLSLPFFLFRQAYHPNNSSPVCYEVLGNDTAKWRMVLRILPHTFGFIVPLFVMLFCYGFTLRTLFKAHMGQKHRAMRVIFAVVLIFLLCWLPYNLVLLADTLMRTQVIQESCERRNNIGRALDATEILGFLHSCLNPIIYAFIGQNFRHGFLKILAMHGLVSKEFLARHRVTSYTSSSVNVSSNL", "experiment": "Binding affinity to CXCR1 (unknown origin) at 10 uM by radioligand displacement assay"}, "Cytomegalovirus": {"test_system": "Cytomegalovirus", "experiment": "Antagonist activity at CMV US28 assessed as inhibition of calcium flux at 10 uM"}, "Rattus norvegicus [13]": {"test_system": "Rattus norvegicus", "experiment": "Toxicity in Sprague-Dawley rat assessed as effect on blood chemistry at 70 to 360 mg/kg, po after 7 days", "assay_type": "organism-based", "design": "dose 70-360 mg/kg, route oral", "conditions": "in vivo, 168 h"}, "Rattus norvegicus [14]": {"test_system": "Rattus norvegicus", "experiment": "Toxicity in Sprague-Dawley rat assessed as effect on complete blood cell count at 70 to 360 mg/kg, po after 7 days", "assay_type": "organism-based", "design": "dose 70-360 mg/kg, route oral", "conditions": "in vivo, 168 h"}, "[15]": {"target": "C-X-C chemokine receptor type 6 (Homo sapiens) (UniProt O00574)", "sequence (O00574 whole entry, looked up)": "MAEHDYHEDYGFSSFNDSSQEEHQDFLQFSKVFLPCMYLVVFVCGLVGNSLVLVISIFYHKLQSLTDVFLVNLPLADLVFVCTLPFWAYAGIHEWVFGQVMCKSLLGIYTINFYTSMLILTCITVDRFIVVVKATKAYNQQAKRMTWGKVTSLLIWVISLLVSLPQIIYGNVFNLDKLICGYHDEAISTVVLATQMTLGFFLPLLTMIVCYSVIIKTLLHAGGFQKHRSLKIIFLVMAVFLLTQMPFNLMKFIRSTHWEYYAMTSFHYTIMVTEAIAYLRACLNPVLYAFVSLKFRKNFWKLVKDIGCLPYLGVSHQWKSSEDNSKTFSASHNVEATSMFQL", "experiment": "Antagonist activity at CXCR6 (unknown origin) assessed as inhibition of calcium flux at 10 uM", "assay_type": "functional"}}, "note": "pIC50: −log10 of the molar value. Calls of active or inactive are those of the source. No cut-off for these calls is given here."}
{"smiles": "COc1cc(N2CCN(C(=O)Cn3nc(C(F)(F)F)c(Cl)c3C)CC2)ccc1Cl", "values": [{"measurement": "inhibition", "setting": "[1]", "value": "inactive"}, {"measurement": "Activity", "setting": "[2]", "value": "inactive"}, {"measurement": "bioavailability", "setting": "[3]", "value": 20, "unit": "%"}, {"measurement": "inhibition", "setting": "[4]", "value": "inactive"}, {"measurement": "Activity", "setting": "[5]", "value": "inactive"}, {"measurement": "inhibition", "setting": "[6]", "value": "inactive"}, {"measurement": "inhibition", "setting": "[7]", "value": "inactive"}, {"measurement": "inhibition", "setting": "[8]", "value": "inactive"}, {"measurement": "inhibition", "setting": "[9]", "value": "inactive"}, {"measurement": "Activity", "setting": "[10]", "value": "inactive"}, {"measurement": "pIC50", "setting": "[11]", "value": 4.80}, {"measurement": "Activity", "setting": "[12]", "value": "inactive"}, {"measurement": "inhibition", "setting": "Cytomegalovirus", "value": "inactive"}, {"measurement": "Activity", "setting": "Rattus norvegicus [13]", "value": "Non-toxic"}, {"measurement": "Activity", "setting": "Rattus norvegicus [14]", "value": "Non-toxic"}, {"measurement": "inhibition", "setting": "[15]", "value": "inactive"}]}
